In publication PMC10477861, “Efficient Mining of Anticancer Peptides from Gut Metagenome” (Advanced Science, 2023):

Experiments:
Conditions in all cases: 25 µM pACP, 24 h, maintenance medium 1% FBS, ratio of viability to vehicle (PBS), at least three technical repetitions
HT29 = assay: MTT primary screening of anticancer activity, HT29; assay type: cell-based, Human
Excerpt: (§1) We successfully chemically synthesized 40 pACPs for the purpose of in vitro or in vivo characterization of their potential anticancer efficacy. In the initial step, we conducted an in vitro primary screen of these 40 pACPs using a panel of 16 different cancer cell lines, including four human CRC lines (HT29, Caco2, HCT116, and […]), as well as 12 other cancer models (Table S4, Supporting Information). We deliberately selected a diverse panel of cell lines to assess the effect of pACPs across various genetic backgrounds. Briefly, the cancer cells were cultured in specific media (details provided in the Experimental Section) and then treated with pACPs at a final concentration of 25 µM. Peptides with minimum effective inhibition concentrations >25 µM were considered non‐ACPs. After exposure to pACPs, the survival rate of the cancer cells was measured using the MTT assay. Remarkably, 39 out of the 40 pACPs (97.5%) induced at least 20% inhibition in at least one cell line (Figure 3a and Table S5, Supporting Information). […] Thus, our method successfully identified pACPs with a very high rate of anticancer effects across various cancer cell lines.
(§2) To evaluate the activity of the 40 potentially effective pACPs, a panel of 16 cancer cell lines was treated, including human CRC cell lines (HT29, Caco‐2, HCT116). Details of the cell lines used, respective media, and culture conditions were presented in Table S1 (Supporting Information). Once the cells reached 60% confluence, it was incubated with each candidate peptide at a concentration of 25 µM pACPs for 24 h. Concurrently, the complete medium was replaced with a maintenance medium containing only 1% FBS. Subsequently, the viability of each cell line using the MTT Cell Proliferation and Cytotoxicity Assay Kit according to the manufacturer's instructions was assessed. […] For the CRC cell line CT26, it was calculated the CC50 value using two peptides (pACP1780 and pACP2283) with relevant data presented in Table S6 (Supporting Information). The calculation was performed using an online tool: https://www.aatbio.com/tools/ic50‐calculator.

CT26 = assay: MTT primary screening of anticancer activity, CT26; assay type: cell-based, Murine
Excerpt: as §1, §2

LCC = assay: MTT primary screening of anticancer activity, LCC; assay type: cell-based
Excerpt: as §1, §2

Caco2 = assay: MTT primary screening of anticancer activity, Caco2; assay type: cell-based, Human
Excerpt: as §1, §2

BT474 = assay: MTT primary screening of anticancer activity, BT474; assay type: cell-based
Excerpt: as §1, §2

B16 = assay: MTT primary screening of anticancer activity, B16; assay type: cell-based, Mouse
Excerpt: as §1, §2

MDA-MB-468 = assay: MTT primary screening of anticancer activity, MDA-MB-468; assay type: cell-based
Excerpt: as §1, §2

MDA-MB-453 = assay: MTT primary screening of anticancer activity, MDA-MB-453; assay type: cell-based
Excerpt: as §1, §2

EFM192A = assay: MTT primary screening of anticancer activity, EFM192A; assay type: cell-based
Excerpt: as §1, §2

MDA-MB-231 = assay: MTT primary screening of anticancer activity, MDA-MB-231; assay type: cell-based
Excerpt: as §1, §2

HCT116 = assay: MTT primary screening of anticancer activity, HCT116; assay type: cell-based, Human
Excerpt: as §1, §2

SK-BR-3 = assay: MTT primary screening of anticancer activity, SK-BR-3; assay type: cell-based
Excerpt: as §1, §2

MDA-MB-436 = assay: MTT primary screening of anticancer activity, MDA-MB-436; assay type: cell-based
Excerpt: as §1, §2

T47D = assay: MTT primary screening of anticancer activity, T47D; assay type: cell-based
Excerpt: as §1, §2

MCF7 = assay: MTT primary screening of anticancer activity, MCF7; assay type: cell-based
Excerpt: as §1, §2

Hela = assay: MTT primary screening of anticancer activity, Hela; assay type: cell-based, Human
Excerpt: as §1, §2

Sequence | Survival rate of cancer cells in primary screening (HT29) | Survival rate of cancer cells in primary screening (CT26) | Survival rate of cancer cells in primary screening (LCC) | Survival rate of cancer cells in primary screening (Caco2) | Survival rate of cancer cells in primary screening (BT474) | Survival rate of cancer cells in primary screening (B16) | Survival rate of cancer cells in primary screening (MDA-MB-468) | Survival rate of cancer cells in primary screening (MDA-MB-453) | Survival rate of cancer cells in primary screening (EFM192A) | Survival rate of cancer cells in primary screening (MDA-MB-231) | Survival rate of cancer cells in primary screening (HCT116) | Survival rate of cancer cells in primary screening (SK-BR-3) | Survival rate of cancer cells in primary screening (MDA-MB-436) | Survival rate of cancer cells in primary screening (T47D) | Survival rate of cancer cells in primary screening (MCF7) | Survival rate of cancer cells in primary screening (Hela)
KGVRGKICKGKRCKQISNSGCDRQEIQEKQENRYRKEKQNKG [pACP886] | 1.00 | 1.00 | 1.00 | 1.00 | 1.00 | 0.78 | 1.00 | 1.00 | 1.00 | 1.00 | 1.00 | 1.00 | 1.00 | 0.69 | 1.00 | 0.73
KSLQMVLSFVIIFADKKKTLATLIVAKKKKGW [pACP1096] | 0.71 | 1.00 | 1.00 | 1.00 | 1.00 | 1.00 | 1.00 | 1.00 | 1.00 | 1.00 | 1.00 | 1.00 | 0.69 | 1.00 | 1.00 | 1.00
LARPDAAPKKQLRRPLRFRQPEWRRISKIHHIPRRFRRA [pACP1156] | 1.00 | 1.00 | 1.00 | 1.00 | 1.00 | 0.78 | 1.00 | 1.00 | 1.00 | 1.00 | 1.00 | 1.00 | 0.74 | 0.74 | 1.00 | 1.00
LLSDFRQYRTKIVRQMRRQIFRQMKQKAE [pACP1210] | 1.00 | 1.00 | 1.00 | 1.00 | 1.00 | 0.76 | 1.00 | 1.00 | 1.00 | 1.00 | 1.00 | 1.00 | 1.00 | 0.65 | 0.79 | 1.00
NFWLSTLTGHGFCAVVSAARAGS [pACP1292] | 1.00 | 1.00 | 1.00 | 1.00 | 1.00 | 1.00 | 1.00 | 1.00 | 0.40 | 1.00 | 1.00 | 1.00 | 0.74 | 0.76 | 0.79 | 1.00
